According to patent CN113004196A, “N-(苯甲氧基)-2-氯烟酰胺类化合物及其制备方法和应用” (Zhejiang University of Technology ZJUT, priority 2021, dated 2021):

Key:
[1] = system: bentgrass (Agrostis) seeds [剪股颖(Agrostis)的种子]; experiment: Herbicidal activity test, seed germination inhibition in 24-well plate, bentgrass; type: in vivo
[2] = system: lettuce seeds [生菜(Lettuce)种子]; experiment: Herbicidal activity test, seed germination inhibition in 24-well plate, lettuce; type: in vivo; conditions: 1 mM

Structure (SMILES): O=C(NOCc1ccccc1Cl)c1cccnc1Cl [I-14]
- inhibition of germination of Agrostis seeds ([1]; 333 μM): 完全抑制

Structure (SMILES): O=C(NOCc1cnc(Cl)s1)c1cccnc1Cl [I-1]
- inhibition of lettuce seeds [2]: 一定抑制作用
- inhibition of germination of Agrostis seeds ([1]; 33 μM): 较好的抑制

Structure (SMILES): O=C(NOCc1ccc(Cl)cc1Cl)c1cccnc1Cl [I-2]
- inhibition of lettuce seeds [2]: 一定抑制作用

Structure (SMILES): O=C(NOCc1ccc(Br)cc1)c1cccnc1Cl [I-5]
- inhibition of lettuce seeds [2]: 一定抑制作用

Structure (SMILES): O=C(NOCc1ccccc1Br)c1cccnc1Cl [I-10]
- inhibition of germination of Agrostis seeds ([1]; 33 μM): 较好的抑制

Structure (SMILES): CC(C)(C)c1ccc(CONC(=O)c2cccnc2Cl)cc1 [I-8]
- inhibition of germination of Agrostis seeds ([1]; 10 μM): 较好的抑制
- inhibition of germination of Agrostis seeds ([1]; 33 μM): 较好的抑制
